Earlier results in paper PMC12007609 (International Journal of Nanomedicine, 2025).

tested on: GLUT2; conditions: GLUT2 transport

SMILES	Km [mM]
O=C(CO)[C@@H](O)[C@H](O)[C@H](O)CO [fructose]	~76
O=C[C@H](O)[C@@H](O)[C@@H](O)[C@H](O)CO [galactose]	~92
OC[C@H]1OC(O)[C@H](O)[C@@H](O)[C@@H]1O (stereo partly drawn) [glucose]	~17
